In article PMC5267425, “Identification of small molecule modulators of HIV-1 Tat and Rev protein accumulation” (Retrovirology, 2017):
Where “and” joins values, the source holds several entries; their conditions need not be identical. Identical values can stand only once.

Tested on: cellular gene expression in HeLa rtTA HIV∆Mls cells
Settings: 9147791-treated cells, two replicates

Cc1cc(NCc2cccnc2)n2ncc(-c3ccc(Cl)cc3)c2n1 [Compound 791, 3-(4-chlorophenyl)-5-methyl-N-(3-pyridinylmethyl)pyrazolo[1,5-a]pyrimidin-7-amine]
ACER2 expression level (gene ACER2): 0.80 and 0.82 | ADO expression level (gene ADO): 10.11 and 9.67 | AKIRIN2 expression level (gene AKIRIN2): 37.74 and 36.76 | ALG5 expression level (gene ALG5): 17.63 and 17.19 | ALKBH8 expression level (gene ALKBH8): 2.78 and 2.65 | ANKRD40 expression level (gene ANKRD40): 18.60 and 17.61 | ANKRD50 expression level (gene ANKRD50): 8.61 and 9.09 | AP3S2 expression level (gene AP3S2): 6.99 and 6.84 | ARL4D expression level (gene ARL4D): 11.90 and 11.09 | ARMC10 expression level (gene ARMC10): 25.33 and 26.90 | ARSJ expression level (gene ARSJ): 5.86 and 6.05 | ATG4B expression level (gene ATG4B): 24.43 and 25.27 | ATP6V1B2 expression level (gene ATP6V1B2): 44.15 and 44.20 | AUP1 expression level (gene AUP1): 93.65 and 90.36 | AVL9 expression level (gene AVL9): 14.40 and 14.91 | AXIN1 expression level (gene AXIN1): 20.61 and 19.36 | B4GALT5 expression level (gene B4GALT5): 32.71 and 30.46 | BCL7A expression level (gene BCL7A): 4.81 and 5.05 | BICD1 expression level (gene BICD1): 5.82 and 5.80 | BIVM expression level (gene BIVM): 26.38 and 27.51 | BMP2K expression level (gene BMP2K): 8.20 and 7.95 | C1orf27 expression level (gene C1orf27): 10.72 and 10.90 | C1orf103 expression level (gene C1orf103): 11.43 and 11.72 | C1orf131 expression level (gene C1orf131): 8.80 and 9.06 | C2orf49 expression level (gene C2orf49): 7.96 and 8.04 | C3orf19 expression level (gene C3orf19): 6.85 and 6.46 | C4orf27 expression level (gene C4orf27): 19.50 and 20.20 | C5orf37 expression level (gene C5orf37): 8.35 and 8.03 | C5orf45 expression level (gene C5orf45): 14.96 and 13.97 | C5orf51 expression level (gene C5orf51): 28.44 and 30.27 | C7orf23 expression level (gene C7orf23): 28.60 and 29.63 | C7orf25 expression level (gene C7orf25): 13.24 and 13.90 | C9orf6 expression level (gene C9orf6): 11.84 and 11.91 | C9orf46 expression level (gene C9orf46): 19.83 and 20.30 | C11orf57 expression level (gene C11orf57): 12.07 and 11.50 | C11orf73 expression level (gene C11orf73): 35.63 and 36.75 | C12orf35 expression level (gene C12orf35): 5.77 and 5.55 | C12orf65 expression level (gene C12orf65): 14.51 and 14.73 | C12orf73 expression level (gene C12orf73): 7.32 and 7.68 | C13orf23 expression level (gene C13orf23): 12.32 and 12.36 | C16orf72 expression level (gene C16orf72): 10.69 and 10.57 | C17orf80 expression level (gene C17orf80): 10.34 and 10.65 | C18orf25 expression level (gene C18orf25): 6.56 and 6.86 | C18orf45 expression level (gene C18orf45): 4.86 and 5.04 | C19orf55 expression level (gene C19orf55): 5.99 and 6.29 | CCBL2 expression level (gene CCBL2): 14.25 and 13.62 | CCDC25 expression level (gene CCDC25): 31.76 and 30.83 | CCDC92 expression level (gene CCDC92): 12.03 and 11.64 | CCNJ expression level (gene CCNJ): 2.94 and 2.91 | CDK4 expression level (gene CDK4): 162.09 and 164.93 | CDK17 expression level (gene CDK17): 8.04 and 8.39 | CHCHD4 expression level (gene CHCHD4): 19.84 and 19.36 | CHN2 expression level (gene CHN2): 1.42 and 1.50 | CLCN2 expression level (gene CLCN2): 5.16 and 5.28 | COG1 expression level (gene COG1): 10.28 and 10.86 | COX19 expression level (gene COX19): 6.58 and 7.00 | CREB1 expression level (gene CREB1): 5.06 and 4.95 | CSGALNACT2 expression level (gene CSGALNACT2): 10.98 and 11.46 | CSNK2A1 expression level (gene CSNK2A1): 37.86 and 40.21 | CSRNP2 expression level (gene CSRNP2): 6.76 and 6.32 | CUEDC2 expression level (gene CUEDC2): 42.63 and 44.50 | DCI expression level (gene DCI): 60.10 and 62.67 | DCLRE1A expression level (gene DCLRE1A): 9.19 and 9.37 | DDB2 expression level (gene DDB2): 110.42 and 109.59 | DDX50 expression level (gene DDX50): 29.08 and 28.13 | DENND4B expression level (gene DENND4B): 17.80 and 17.11 | DET1 expression level (gene DET1): 3.28 and 3.58 | DGKQ expression level (gene DGKQ): 6.10 and 5.97 | DLG4 expression level (gene DLG4): 6.58 and 6.74 | DNAJB14 expression level (gene DNAJB14): 5.32 and 5.63 | DNASE2 expression level (gene DNASE2): 67.31 and 73.16 | DYM expression level (gene DYM): 17.92 and 17.95 | EDEM1 expression level (gene EDEM1): 13.02 and 13.54 | EIF2S3 expression level (gene EIF2S3): 260.44 and 268.10 | EPRS expression level (gene EPRS): 87.21 and 89.05 | ESCO1 expression level (gene ESCO1): 5.82 and 5.63 | ESRRA expression level (gene ESRRA): 58.60 and 54.56 | ETV6 expression level (gene ETV6): 3.21 and 3.17 | FAIM3 expression level (gene FAIM3): 2.34 and 2.22 | FAM83G expression level (gene FAM83G): 15.73 and 15.43 | FAM102A expression level (gene FAM102A): 15.44 and 14.97 | FAM107B expression level (gene FAM107B): 26.06 and 26.60 | FAM119B expression level (gene FAM119B): 5.44 and 5.43 | FAM176B expression level (gene FAM176B): 1.37 and 1.42 | FAM179B expression level (gene FAM179B): 3.35 and 3.46 | FAR1 expression level (gene FAR1): 21.55 and 22.22 | FBXO22 expression level (gene FBXO22): 18.71 and 19.58 | FBXW4 expression level (gene FBXW4): 11.10 and 10.83 | FEM1C expression level (gene FEM1C): 5.87 and 6.20 | FEZ2 expression level (gene FEZ2): 28.49 and 26.84 | FLCN expression level (gene FLCN): 15.28 and 15.93 | FLYWCH1 expression level (gene FLYWCH1): 20.36 and 21.57 | FOSL2 expression level (gene FOSL2): 35.73 and 35.26 | FOXF1 expression level (gene FOXF1): 7.56 and 7.55 | FOXJ2 expression level (gene FOXJ2): 9.27 and 9.86 | FXYD5 expression level (gene FXYD5): 112.40 and 117.32 | GATA5 expression level (gene GATA5): 1.79 and 1.70 | GJD3 expression level (gene GJD3): 4.71 and 4.56 | GNA13 expression level (gene GNA13): 17.15 and 16.92 | GORAB expression level (gene GORAB): 7.75 and 7.67 | GOSR1 expression level (gene GOSR1): 11.79 and 11.45 | GPC5 expression level (gene GPC5): 9.86 and 10.11 | GPD1L expression level (gene GPD1L): 13.45 and 13.69 | GTF2H3 expression level (gene GTF2H3): 21.55 and 22.21 | HAUS3 expression level (gene HAUS3): 7.54 and 8.11 | HAUS4 expression level (gene HAUS4): 59.72 and 63.77 | HDHD2 expression level (gene HDHD2): 9.17 and 8.71 | HECTD1 expression level (gene HECTD1): 31.75 and 32.77 | HIF1A expression level (gene HIF1A): 79.76 and 77.72 | HPS3 expression level (gene HPS3): 15.09 and 14.61 | HRSP12 expression level (gene HRSP12): 13.91 and 14.84 | HSD17B1 expression level (gene HSD17B1): 4.57 and 4.64 | IFNGR1 expression level (gene IFNGR1): 18.57 and 18.18 | INPP1 expression level (gene INPP1): 8.36 and 7.77 | IPO13 expression level (gene IPO13): 15.99 and 16.09 | IQCB1 expression level (gene IQCB1): 10.15 and 11.00 | KCTD1 expression level (gene KCTD1): 4.57 and 4.58 | KCTD13 expression level (gene KCTD13): 10.32 and 11.29 | KIAA0232 expression level (gene KIAA0232): 9.33 and 9.86 | KIAA0649 expression level (gene KIAA0649): 25.63 and 26.16 | KIAA0753 expression level (gene KIAA0753): 6.64 and 6.86 | KRR1 expression level (gene KRR1): 19.83 and 18.92 | LARS expression level (gene LARS): 72.55 and 69.28 | LGTN expression level (gene LGTN): 39.45 and 39.33 | LRP5L expression level (gene LRP5L): 3.26 and 3.08 | LRPPRC expression level (gene LRPPRC): 66.45 and 68.25
